One substance from patent US20250377365A1, “METHODS INVOLVING DETECTING TNF STIMULATED GENE 6 (TSG-6) FOR IMPROVING ANTI-TUMOR RESPONSES TO IMMUNE THERAPY IN CANCER PATIENTS” (BOARD OF REGENTS, THE UNIVERSITY OF TEXAS SYSTEM, priority 2022, published 2025) can be followed below.

In the experiment the test system is bone marrow-derived macrophages (BMDM). The experiment is described as follows: In vitro macrophage polarization assay (RT-qPCR gene expression). The settings on record: 0.5 mg/mL recombinant TSG6, 2 days, qPCR vs GAPDH, FIG. 3C. The experiment is classed as cell-based, mice. An excerpt: To determine if fibroblast secreted TSG-6 regulates the presence the distinct myeloid subsets between melanoma and pancreatic TME, the inventors performed receptor-ligand studies between the myeloid subsets and fibroblasts. First, the inventors analyzed the relative expression of TSG-6 and its binding partner CD44 in the fibroblasts and macrophage/neutrophil subsets. While TSG-6 was expressed slightly higher in the mT4 tumors as compared to B16F10 tumors, its ligand CD44 was primarily expressed in the macrophage/neutrophil subsets only in the mT4 tumors (FIG. 3A). To determine if this observation correlates with higher interactions between TSG-6 and suppressive myeloid subsets in the mT4 tumors, the inventors performed receptor-ligand interaction studies using CellChat analysis (PMID: 33597522). The analysis indicated strong communication probabilities of fibroblast expressed TSG-6 and myeloid CD44 interaction only in the mT4 tumors and not B16F10 tumors (FIG. 3B). To further evaluate whether TSG-6 regulates the immunosuppressive macrophage phenotype, the inventors performed an in vitro macrophage polarization assay. The inventors stimulated bone marrow-derived macrophages (BMDM) with either LPS or recombinant TSG-6 (rTSG-6) and observed that rTSG-6 increased the expression of Arg1, Mafb, Mrc1, and Vista in the macrophages and suppressed Ifng expression (FIG. 3C). Thus, the above data indicates TSG-6 interacts with suppressive intratumoral myeloid subsets and might have a role to play in resistance to ICT.
TSG-6 stimulated bone marrow derived macrophages (BMDM) and RT-qPCR Gene Expression: BMDM were isolated from the femurs of wild type C57/BL6 mice in ice cold complete RPMI 1640 media. Both epiphyses were removed before the bones were placed in sterile microfuge tubes and centrifuged at 500×g for 5 minutes at 4° C. to extrude the bone marrow. The collected bone marrow was homogenized by pipetting followed by RBC lysis. The single cell suspension of bone marrow cells obtained, was counted in an automated Vicell cell counter before 2.0e6 cells/well were cultured in Iscove's Modified Dulbecco's Medium (IMDM) supplemented with 10% FBS and 10 ng/ml Macrophage colony-stimulating factor (M-CSF) (Biolegend, Cat #576404)) in a 12 well plate. On Day 3, cells were resuspended in fresh growth media and on Day 7, cells were subjected to fresh complete IMDM containing 100 ng/ml LPS (InvivoGen, Cat #tlrl-eblps) and 0.5 mg/mL recombinant TSG6 (R&D Systems, Cat #2326-TS-050) and left in culture for 2 days. Supernatants were removed and adhered macrophages were subjected to Accutase cell detachment solution following manufacturers protocol (Innovative Cell Technologies, 07920). Macrophages were resuspended and centrifuged at 350×g for 8 minutes. Cell pellets were lysed with 350 uL buffer RLT lysis buffer (Qiagen, 74104) supplemented with B-ME and subjected to RNA extraction using RNA mini extraction kit (Qiagen, 74104). cDNA was synthesized using the NEB LunaScript RT SuperMix Kit (E3010L) and 30 ng of total cDNA was used for each 20 uL qPCR reaction. Taqman gene expression Real-Time PCR assays were run using manufacturers protocol and gene targets were compared to GAPDH housekeeping expression (GAPDH, Mm05724508_g1; IFNg, Mm01168134_m1; Mrc1, Mm01329359_m1; Arg1, Mm00475988_m1; Mafb, Mm00627481_s1, VISTA, Mm00472312_m1).
A general note: In qPCR the cycle at which signal appears reflects the starting amount.

For “rTSG-6: recombinant TSG6 protein, R&D Systems, Cat #2326-TS-050”, the Ifng expression result was “suppressed”, the “expression of Arg1” value is reported as “increased”, the “expression of Mafb” value was “increased” and the “expression of Mrc1” value is “increased”. Further, the “expression of Vista” value was “increased”.
